The test system of this assay is cell lines with elevated PHGDH expression (BT-20, MDA-MB-468, HCC70, Hs578T and MT3). Briefly: Cell proliferation assay after lentiviral shRNA infection. Format: cell-based, human. The settings on record: media supplemented during PHGDH knockdown. The method, then: For PHGDH or PSPH knockdown experiments, 10,000-20,000 MDA-MB-468, BT-20, HCC70, MCF-7, or MDA-MB-23 I cells were infected with shRNA-expressing lentiviruses of known titers at a multiplicity of infection of 2.5 to 5. Cells were cultured in 12-well plates and infected via a 30-minute spin at 2,250 RPM in a Beckman Coulter Allegra X-12R centrifuge with an SX4750 rotor and uPlate Carrier attachment followed by an overnight incubation in media containing polybrene. Eight days after infection the number of cells was determined using a Coulter Counter (Beckman) and used to calculate relative cell proliferation. Where indicated, standard RPMI media was supplemented with serine to concentrations 5-fold that of the serine already in the media. Where indicated, supplementation occurred at one and four days after lentiviral infection. For serine depletion experiments, cells were plated out as described above and the following day the standard culture medium was replaced with medium lacking serine or reconstituted with 1× serine. Dialyzed serum (3 kDa MWCO) was utilized in serine depletion experiments except in the case of MCF-10A cells, where standard 5% serum was utilized.

The structures appear in SMILES notation.

`COC(=O)C(N)CO` (centres unmarked) [methyl-serine-ester]: the “effect of media supplementation on the PHGDH knockdown proliferation phenotype” value is listed as “did not blunt the effects of the PHGDH knockdown”. `N[C@@H](CO)C(=O)O` [serine]: the “effect of media supplementation on the PHGDH knockdown proliferation phenotype” value was “did not blunt the effects of the PHGDH knockdown”.

These data come from patent US20140087970A1, “SERINE BIOSYNTHESIS PATHWAY INHIBITION FOR TREATMENT OF CANCER” (Whitehead Institute for Biomedical Research, priority 2011, published 2014).
